From PubChem BioAssay AID2060497 (Molecular Pharmacology Branch, DTP, NCI, 2025)
Several values for one entry are separate records, joined by “and”; a condition that tells them apart may be missing. Equal entries are not always repeated.

Test system: 317291-083-R-J1-PDC complex spheroids, viability
Assay: Anticancer human tumor 317291-083-R-J1-PDC patient-derived soft tissue sarcoma cell line growth inhibition [GQUAD]
Conditions: for viability, T/C: stronger effect = lower value
Procedure, shortened: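 Viability of tumor cells grown as complex spheroids with endothelial and stromal cells, exposed to drug combinations. Top concentration at or near clinical Cmax (else 10 microM), diluted in half-log increments.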

[1] = curve of first compound, second compound 0.0316 µM
[2] = curve of first compound, second compound 0.1 µM
[3] = curve of first compound, second compound 0.316 µM
[4] = curve of first compound, second compound 1 µM
[5] = curve of first compound, second compound 3.16 µM
[6] = curve of first compound, second compound 10 µM
[7] = second compound 0.0316 µM, first compound 0.0316 µM
[8] = second compound 0.0316 µM, first compound 0.1 µM
[9] = second compound 0.0316 µM, first compound 0.316 µM
[10] = second compound 0.0316 µM, first compound 1 µM
[11] = second compound 0.0316 µM, first compound 3.16 µM
[12] = second compound 0.0316 µM, first compound 10 µM
[13] = second compound 0.1 µM, first compound 0.0316 µM
[14] = second compound 0.1 µM, first compound 0.1 µM
[15] = second compound 0.1 µM, first compound 0.316 µM
[16] = second compound 0.1 µM, first compound 1 µM
[17] = second compound 0.1 µM, first compound 3.16 µM
[18] = second compound 0.1 µM, first compound 10 µM
[19] = second compound 0.316 µM, first compound 0.0316 µM
[20] = second compound 0.316 µM, first compound 0.1 µM
[21] = second compound 0.316 µM, first compound 0.316 µM
[22] = second compound 0.316 µM, first compound 1 µM
[23] = second compound 0.316 µM, first compound 3.16 µM
[24] = second compound 0.316 µM, first compound 10 µM
[25] = second compound 1 µM, first compound 0.0316 µM
[26] = second compound 1 µM, first compound 0.1 µM
[27] = second compound 1 µM, first compound 0.316 µM
[28] = second compound 1 µM, first compound 1 µM
[29] = second compound 1 µM, first compound 3.16 µM
[30] = second compound 1 µM, first compound 10 µM
[31] = second compound 3.16 µM, first compound 0.0316 µM
[32] = second compound 3.16 µM, first compound 0.1 µM
[33] = second compound 3.16 µM, first compound 0.316 µM
[34] = second compound 3.16 µM, first compound 1 µM
[35] = second compound 3.16 µM, first compound 3.16 µM
[36] = second compound 3.16 µM, first compound 10 µM
[37] = second compound 10 µM, first compound 0.0316 µM
[38] = second compound 10 µM, first compound 0.1 µM
[39] = second compound 10 µM, first compound 0.316 µM
[40] = second compound 10 µM, first compound 1 µM
[41] = second compound 10 µM, first compound 3.16 µM
[42] = second compound 10 µM, first compound 10 µM
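Also: spheroids exposed to compounds for one week before readout.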
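For viability, T/C in this document: percent viability relative to DMSO vehicle wells taken as 100%.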

COc1ccc([C@@H](O)c2cc(-c3ncnc4cc(N5CCOCC5)ccc34)c(F)cc2Cl)nn1 + Cc1cnc(CNC(=O)c2c(=O)c3ccc(N4CCCN(C)CC4)nc3n3c2sc2ccccc23)cn1
IC50 [1]: 2030 nM | IC50 [2]: 163 nM | IC50 [3]: 61.9 nM | IC50 [4]: < 31.6 nM | IC50 [5]: < 31.6 nM | IC50 [6]: < 31.6 nM | viability, T/C [7]: 108% | viability, T/C [8]: 92.1% | viability, T/C [9]: 68.2% | viability, T/C [10]: 66.6% | viability, T/C [11]: 41.5% | viability, T/C [12]: 30.7% | viability, T/C [13]: 85.9% | viability, T/C [14]: 50.3% | viability, T/C [15]: 49.4% | viability, T/C [16]: 35.1% | viability, T/C [17]: 24.1% | viability, T/C [18]: 31.8% | viability, T/C [19]: 58.2% | viability, T/C [20]: 42.9% | viability, T/C [21]: 38.1% | viability, T/C [22]: 22.4% | viability, T/C [23]: 24.2% | viability, T/C [24]: 19.8% | viability, T/C [25]: 41% | viability, T/C [26]: 25.3% | viability, T/C [27]: 19.6% | viability, T/C [28]: 23.4% | viability, T/C [29]: 33.7% | viability, T/C [30]: 22.7% | viability, T/C [31]: 40.1% | viability, T/C [32]: 41.4% | viability, T/C [33]: 19.8% | viability, T/C [34]: 20.6% | viability, T/C [35]: 23% | viability, T/C [36]: 16.9% | viability, T/C [37]: 19.1% | viability, T/C [38]: 40.8% | viability, T/C [39]: 17.7% | viability, T/C [40]: 17.3% | viability, T/C [41]: 18.6% | viability, T/C [42]: 19.9%

CC(C)(O)C1CCC(Nc2ccc3ncc(-c4cccc(C(F)(F)F)c4)n3n2)CC1 (centres undefined) + Cc1cnc(CNC(=O)c2c(=O)c3ccc(N4CCCN(C)CC4)nc3n3c2sc2ccccc23)cn1
IC50 [1]: 507 nM | IC50 [2]: 342 nM | IC50 [3]: 91.4 nM | IC50 [4]: < 31.6 nM | IC50 [5]: < 31.6 nM | IC50 [6]: < 31.6 nM | viability, T/C [7]: 87.8% | viability, T/C [8]: 76.5% | viability, T/C [9]: 72.1% | viability, T/C [10]: 19% | viability, T/C [11]: 0.22% | viability, T/C [12]: 0.45% | viability, T/C [13]: 58.2% | viability, T/C [14]: 60% | viability, T/C [15]: 49.1% | viability, T/C [16]: 28% | viability, T/C [17]: 0.24% | viability, T/C [18]: 1.34% | viability, T/C [19]: 72.8% | viability, T/C [20]: 37.8% | viability, T/C [21]: 37.8% | viability, T/C [22]: 24.8% | viability, T/C [23]: 1.74% | viability, T/C [24]: 2.26% | viability, T/C [25]: 30.8% | viability, T/C [26]: 19.5% | viability, T/C [27]: 16% | viability, T/C [28]: 25.2% | viability, T/C [29]: 0.05% | viability, T/C [30]: 0.07% | viability, T/C [31]: 13.3% | viability, T/C [32]: 14.7% | viability, T/C [33]: 8.5% | viability, T/C [34]: 0.54% | viability, T/C [35]: 0.12% | viability, T/C [36]: 0.16% | viability, T/C [37]: 1.34% | viability, T/C [38]: 0.11% | viability, T/C [39]: 0.17% | viability, T/C [40]: 0.12% | viability, T/C [41]: 0.21% | viability, T/C [42]: 0.22%

CCc1c2c(nc3ccc(O)cc13)-c1cc3c(c(=O)n1C2)COC(=O)[C@]3(O)CC
viability, T/C (compound 0.000999 µM): 67.6% and 68.7% and 66.8% | viability, T/C (compound 0.00316 µM): 24.9% and 26.7% and 19.9% | viability, T/C (compound 0.00999 µM): 13% and 18.2% and 10.6% | viability, T/C (compound 0.0316 µM): 12.7% and 11.9% and 9.88% | viability, T/C (compound 0.0999 µM): 8.64% and 6.96% and 7.26% | viability, T/C (compound 0.316 µM): 4.6% and 5.68% and 4.03% | IC50 (curve of compound): 1.61 nM and 1.72 nM and 1.51 nM

CN(C)c1ccc(Nc2c3ccc(NC(=O)CCN4CCCC4)cc3nc3cc(NC(=O)CCN4CCCC4)ccc23)cc1
viability, T/C (compound 0.1 µM): 99.5% [middle of 12 runs] | viability, T/C (compound 10 µM): 11.4% [middle of 11 runs]

COc1cc(C2c3cc4c(cc3C(OC3OC5COC(C)OC5C(O)C3O)C3COC(=O)C23)OCO4)cc(OC)c1O (centres undefined)
viability, T/C (compound 0.0316 µM): 94.7% and 99.8% (2×) | viability, T/C (compound 0.1 µM): 96.7% and 94.9% and 84.3% | viability, T/C (compound 0.316 µM): 48.8% and 64% and 53.8% | viability, T/C (compound 1 µM): 22.1% and 20.2% and 30.3% | viability, T/C (compound 3.16 µM): 15.9% and 15.7% and 15.8% | viability, T/C (compound 10 µM): 12% and 11.2% and 17% | IC50 (curve of compound): 311 nM and 457 nM and 384 nM

O=C(c1cc(Cc2n[nH]c(=O)c3ccccc23)ccc1F)N1CCN(C(=O)C2CC2)CC1 + CN(C)c1ccc(Nc2c3ccc(NC(=O)CCN4CCCC4)cc3nc3cc(NC(=O)CCN4CCCC4)ccc23)cc1
IC50 [1]: 8520 nM | IC50 [2]: 8530 nM | IC50 [3]: 9790 nM | IC50 [4]: < 31.6 nM | IC50 [5]: < 31.6 nM | IC50 [6]: < 31.6 nM | viability, T/C [7]: 107% | viability, T/C [8]: 88.7% | viability, T/C [9]: 93.2% | viability, T/C [10]: 92.8% | viability, T/C [11]: 84.9% | viability, T/C [12]: 44.1% | viability, T/C [13]: 111% | viability, T/C [14]: 93.4% | viability, T/C [15]: 101% | viability, T/C [16]: 96.7% | viability, T/C [17]: 76.3% | viability, T/C [18]: 45.8% | viability, T/C [19]: 84.4% | viability, T/C [20]: 83.3% | viability, T/C [21]: 83.8% | viability, T/C [22]: 67.6% | viability, T/C [23]: 73.5% | viability, T/C [24]: 48% | viability, T/C [25]: 55% | viability, T/C [26]: 36.5% | viability, T/C [27]: 44.2% | viability, T/C [28]: 48.1% | viability, T/C [29]: 52.3% | viability, T/C [30]: 45.8% | viability, T/C [31]: 34.7% | viability, T/C [32]: 27.9% | viability, T/C [33]: 22.8% | viability, T/C [34]: 21.4% | viability, T/C [35]: 16.6% | viability, T/C [36]: 15.9% | viability, T/C [37]: 5% | viability, T/C [38]: 12.6% | viability, T/C [39]: 14.9% | viability, T/C [40]: 11.7% | viability, T/C [41]: 31.9% | viability, T/C [42]: 6.71%

COc1cccc2c1C(=O)c1c(O)c3c(c(O)c1C2=O)CC(O)(C(=O)CO)CC3OC1CC(N)C(O)C(C)O1 (centres undefined) + Cc1cnc(CNC(=O)c2c(=O)c3ccc(N4CCCN(C)CC4)nc3n3c2sc2ccccc23)cn1
IC50 [1]: 72.5 nM | IC50 [2]: 47.1 nM | IC50 [3]: < 31.6 nM | IC50 [4]: < 31.6 nM | IC50 [5]: < 31.6 nM | IC50 [6]: < 31.6 nM | viability, T/C [7]: 84% | viability, T/C [8]: 34% | viability, T/C [9]: 21.1% | viability, T/C [10]: 10.7% | viability, T/C [11]: 1.84% | viability, T/C [12]: 4.21% | viability, T/C [13]: 62.7% | viability, T/C [14]: 24% | viability, T/C [15]: 18.2% | viability, T/C [16]: 8.39% | viability, T/C [17]: 3.34% | viability, T/C [18]: 2.66% | viability, T/C [19]: 45.8% | viability, T/C [20]: 35% | viability, T/C [21]: 22.1% | viability, T/C [22]: 6.47% | viability, T/C [23]: 2.05% | viability, T/C [24]: 2.05% | viability, T/C [25]: 38.1% | viability, T/C [26]: 18.4% | viability, T/C [27]: 15.9% | viability, T/C [28]: 12.2% | viability, T/C [29]: 1.05% | viability, T/C [30]: 1.27% | viability, T/C [31]: 18.5% | viability, T/C [32]: 15.8% | viability, T/C [33]: 11.6% | viability, T/C [34]: 0.53% | viability, T/C [35]: 0.36% | viability, T/C [36]: 1.14% | viability, T/C [37]: 16.5% | viability, T/C [38]: 15.6% | viability, T/C [39]: 20.6% | viability, T/C [40]: 20.7% | viability, T/C [41]: 0.34% | viability, T/C [42]: 0.34%
